Counter-ions that a name gives are not always drawn.
The compounds below were run against T1, human PAR2 receptor (Homo sapiens, UniProt P55085) (assay: PAR2 antagonist activity, calcium flux FLIPR assay (trypsin challenge)). Conditions: not given.
T1 construct: expressed in transfected cells; host or cells: 1321N1 cells
T1 sequence (P55085 26-397): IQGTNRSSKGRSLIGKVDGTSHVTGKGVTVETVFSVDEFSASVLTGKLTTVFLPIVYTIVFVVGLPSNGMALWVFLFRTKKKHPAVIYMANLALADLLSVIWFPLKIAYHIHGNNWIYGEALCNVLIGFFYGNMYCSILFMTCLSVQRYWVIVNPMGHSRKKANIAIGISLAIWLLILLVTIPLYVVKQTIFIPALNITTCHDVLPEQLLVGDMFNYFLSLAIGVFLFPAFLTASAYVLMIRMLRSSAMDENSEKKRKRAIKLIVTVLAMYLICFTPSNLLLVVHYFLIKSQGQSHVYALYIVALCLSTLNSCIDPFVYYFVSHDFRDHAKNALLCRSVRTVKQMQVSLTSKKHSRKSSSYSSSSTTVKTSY
Type: cell-based
Description: The PAR2 receptor couples through the Gq signaling pathway and results in activation of calcium mobilization. The functional activity of test compounds was routinely tested by measuring the ability of compounds to antagonize PAR2 (trypsin challenge) activity in a dose dependent manner, in 1321N1 cells transfected with the human PAR2 receptor, using a calcium flux Fluorescent Imaging Plate Reader FLIPR assay.
Briefly, test compounds were dissolved in DMSO to a concentration of 20 mM and stored in matrix screenmate racks. […] The compounds were then transferred to 384-well assay plates ready for use. […] The assay buffer used was HBSS buffer supplemented with 20 mM HEPES and 0.1% BSA (protease free), pH7.4. The loading/wash buffers were the same as the assay buffer.
Sub-cultivations were performed every 2-3 d. […] After washing, the cells were loaded with Fluo-4 AM dye (Molecular probes) at 2 μM containing 0.48 μg/mL pluronic acid for 60 min at 37° C. under 5% CO2.
A combined agonist/antagonist protocol was used to measure changes in intracellular calcium concentration. Compound (antagonist) was added to the cell plate using a Fluorometric Imaging Plate Reader (FLIPR) (Molecular Devices, Sunnyvale, Calif., USA). Basal fluorescence was recorded every second for 10 seconds prior to compound addition (10 μl) and fluorescence recorded every second for 1 min then every 6 seconds for a further 1 min. Trypsin (EC50 concentration) was then added using the FLIPR and fluorescence recorded as described above. Curve-fitting and parameter estimation were carried out using GraphPad Prism 4.0 (GraphPad Software Inc., San Diego, Calif.).

With `O=C(NCc1ccc2nc[nH]c2c1)N1CCC(Nc2ccc(F)cc2)CC1` [Example 58, N-(1H-1,3-Benzodiazol-6-ylmethyl)-4-[(4-fluorophenyl)amino]piperidine-1-carboxamide] the IC50 was 20 to 50 µM.

Same assay, conditions: 1321N1 cells transfected with the human PAR2 receptor; trypsin (EC50 concentration) challenge; calcium flux FLIPR; read-out: PAR2 IC50

`O=C(NCc1ccc2nc[nH]c2c1)N1CCC(Oc2ccc(F)cc2)CC1` [Example 55, N-(1H-1,3-Benzodiazol-6-ylmethyl)-4-(4-fluorophenoxy)piperidine-1-carboxamide] and `O=C(NCc1ccc2c(c1)CNC2)N1CCC(Oc2ccc(F)cc2)CC1` [Example 66, N-(2,3-Dihydro-1H-isoindol-5-ylmethyl)-4-(4-fluorophenoxy) piperidine-1-carboxamide hydrochloride] fall in the same range of IC50: 20 to 50 µM for the first, 20 to 50 µM for the second.

`COc1ccc(CC2CCN(C(=O)NCc3ccc4nc[nH]c4c3)CC2)cc1` [Example 56, N-(1H-1,3-Benzodiazol-6-ylmethyl)-4-[(4-methoxyphenyl)methyl] piperidine-1-carboxamide] and `O=C(NCc1ccc2nc[nH]c2c1)N1CCC(Cc2ccncc2)CC1` [Example 57, N-(1H-1,3-Benzodiazol-6-ylmethyl)-4-(pyridin-4-ylmethyl)piperidine-1-carboxamide] fall in the same range of IC50: 20 to 50 µM for the first, 20 to 50 µM for the second.

`O=C(NCc1ccc2nc[nH]c2c1)N1CCC(c2ccccc2)C1` (centres unmarked) [Example 59, 2,2,2-Trifluoroacetic acid; N-(1H-1,3-benzodiazol-5-ylmethyl)-3-phenylpyrrolidine-1-carboxamide] and `O=C(NCc1ccc2nc[nH]c2c1)N1CCC(Cc2ccccc2)C1` (centres unmarked) [Example 60, 2,2,2-Trifluoroacetic acid; N-(1H-1,3-benzodiazol-5-ylmethyl)-3-benzylpyrrolidine-1-carboxamide] fall in the same range of IC50: 5 to 20 µM for the first, 5 to 20 µM for the second.

Compared with `O=C(NCc1ccc2nn[nH]c2c1)N1CCC(Cc2ccccc2)CC1` [Example 61, N-(1H-1,2,3-Benzotriazol-6-ylmethyl)-4-benzylpiperidine-1-carboxamide], `Nc1nc2ccc(CNC(=O)N3CCC(Cc4ccccc4)CC3)cc2[nH]1` [Example 62, N-[(2-Amino-1H-1,3-benzodiazol-6-yl)methyl]-4-benzylpiperidine-1-carboxamide] is lower in IC50: 50 to 100 µM for the first, 5 to 20 µM for the second.

Compared with `N=C(N)Nc1ccc(CNC(=O)N2CCC(Cc3ccccc3)CC2)cc1` [Example 63, 2,2,2-Trifluoroacetic acid; 4-benzyl-N-[(4-carbamimidamidophenyl)methyl]piperidine-1-carboxamide], `NCc1cccc(CNC(=O)N2CCC(Cc3ccccc3)CC2)c1` [Example 67, N-{[3-(Aminometh-yl)phen-yl]methyl}-4-benzylpiperidine-1-carboxamide] is higher in IC50: 5 to 20 µM for the first, 50 to 100 µM for the second.

First: O=C(NCc1ccc2c(c1)CNC2)N1CCC(Cc2ccccc2)CC1 [Example 64, 4-Benzyl-N-(2,3-dihydro-1H-isoindol-5-ylmeth-yl)piperidine-1-carboxamide]
Second: O=C(NCc1ccc2c(c1)CNC2)N1CCC(Cc2ccncc2)CC1 [Example 65, N-(2,3-Dihydro-1H-isoindol-5-ylmethyl)-4-(pyridin-4-ylmethyl)piperidine-1-carboxamide dihydrochloride]
The IC50 of the first is lower: 5 to 20 µM for the first, 50 to 100 µM for the second.

`NCCCCCNC(=O)N1CCC(Cc2ccccc2)CC1` [Example 68, N-(5-Aminopentyl)-4-benzylpiperidine-1-carboxamide] was tested, and the IC50 was 20 to 50 µM.
